The target in assay [1] is T1, hnRNPA2B1 GRD3 (301–353 aa) (Homo sapiens, UniProt P22626).
T1 construct: hnRNPA2B1(301-353aa); made in house; host or cells: bacteria (pGEX6P-1 vector)
T1 sequence (P22626 301-353): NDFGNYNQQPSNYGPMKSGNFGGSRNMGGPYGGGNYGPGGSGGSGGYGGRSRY
Briefly: BLItz association-dissociation binding assay, GST-fused GRD3. Conditions: Con. 5 uM. How it is done: (§1) The binding capacity of hnRNPA2B1 to Biotin-MO-460 was also analyzed using a BLItz™ (Fortebio, Inc., CA, US) instrument with a streptavidin-coated biosensor tip (Pall, USA). The streptavidin-coated tips were pre-wetted for 10 min in an incubation buffer (10 mM HEPES pH 7.4, 1% BSA and 0.05% Tween 20). The streptavidin-coated tips were immobilized with 1 μM Biotin-MO-460 in incubation buffer (10 mM HEPES pH 7.4, 1% BSA and 0.05% Tween 20) for 5 min. The biosensor was washed with HEPES (pH 7.4) and incubated with 250-, 500- and 1,000-nM concentrations of the full-length and truncated hnRNPA2B1 proteins for 3 min. The concentrations were then incubated with HEPES for another 3 min to desorb the protein. Analysis of the accurate and precise kinetic constants was performed by the BLItz data analysis software (BLItz Pro 1.1).

The target of assay [2] is T2, hnRNPA2B1 GRD (202–353 aa) (Homo sapiens, UniProt P22626).
T2 construct: 202–353 aa; His; made in house; host or cells: bacteria (pET28A vector)
The assay can be described thus: BLItz association-dissociation binding assay, GRD of hnRNPA2B1. The following applies: 6XHis tagged protein, Con. 5 uM, biotin-MO-460 on streptavidin tip. As to the method: as §1, with “The biosensor was washed with HEPES (pH 7.4) and incubated with 250-, 500- and 1,000-nM concentrations of the full-length and truncated hnRNPA2B1 proteins for 3 min.” left out

Another assay concerns the target T3, hnRNPA2B1 (Homo sapiens, UniProt P22626).
T3 construct: made in house; host or cells: HEK293T
The assay can be described thus: In vitro pull-down assay of purified recombinant hnRNPA2B1. It is filed as binding. The following applies: excess amount of MO-460 added. How it is done:
HEK293T cells were cultured in DMEM medium supplemented with 10% fetal bovine serum in a humidified atmosphere containing 5% CO2. The cells were transfected with C-terminal Myc/DDK-tagged hnRNPA2B1 constructs. Recombinant protein was captured with an anti-DDK affinity column followed by conventional chromatography. A streptavidin-conjugated biotin linker was used as a control or streptavidin-conjugated biotinylated MO-460 were treated with 5% bovine serum albumin in PBS for 1 h at room temperature. Myc/DDK-tagged hnRNPA2B1 protein (1 ug) was incubated with streptavidin-conjugated biotin linker (1,200 μM) or streptavidin-conjugated biotinylated MO-460 (400 μM) in the presence or absence of MO-460 (400 μg) in binding buffer for 6 h at 4 °C. The reacted beads were washed with binding buffer [10 mM HEPES pH 7.9, 10 mM KCl, 0.1 mM EGTA, 0.1 mM EDTA, 0.5 mM PMSF, 0.025% 2-mercaptoethanol, and protease inhibitor cocktail] and the bound proteins eluted with SDS/PAGE sample buffer. Proteins were resolved by SDS/PAGE and detected by silver staining.

The record followed here is PMC6372683, “Mechanism of the natural product moracin-O derived MO-460 and its targeting protein hnRNPA2B1 on HIF-1α inhibition” (Experimental & Molecular Medicine, 2019).

Each structure is given as a SMILES string.

T2 sequence (P22626 202-353): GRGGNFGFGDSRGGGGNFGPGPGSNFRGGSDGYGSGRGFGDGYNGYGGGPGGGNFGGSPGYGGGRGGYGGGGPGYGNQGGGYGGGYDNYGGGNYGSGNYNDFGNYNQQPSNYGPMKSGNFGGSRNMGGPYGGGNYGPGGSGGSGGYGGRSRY
T3 sequence (P22626 whole entry): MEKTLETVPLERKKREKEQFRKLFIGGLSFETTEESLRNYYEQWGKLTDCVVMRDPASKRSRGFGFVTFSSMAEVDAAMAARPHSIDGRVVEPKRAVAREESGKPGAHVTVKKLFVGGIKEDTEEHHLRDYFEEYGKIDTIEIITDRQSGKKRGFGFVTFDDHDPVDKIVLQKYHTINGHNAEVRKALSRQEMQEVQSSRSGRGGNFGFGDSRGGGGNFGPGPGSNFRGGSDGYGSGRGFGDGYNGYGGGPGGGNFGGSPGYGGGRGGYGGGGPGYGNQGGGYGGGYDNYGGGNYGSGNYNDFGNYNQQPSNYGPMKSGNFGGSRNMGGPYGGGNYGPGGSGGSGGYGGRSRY

As to `CC(C)(O)[C@H]1Cc2cc3cc(-c4ccc(O)cc4)oc3cc2O1` [MO-460, (R)-4-[6-(1-Hydroxy-1-methylethyl)-5,6-dihydro-benzo[1,2-b;5,4-b’]difuran-2-yl]-phenol], the Kd (usually the concentration at which binding is half-saturated) in assay [1] came to 0.299 µM; in assay [2], 6.6 µM. The “interaction between hnRNPA2B1 and biotin-MO-460 on competition” value on hnRNPA2B1 is “eliminated”.
